Measurements: patent publication US20140010939A1, “Sweetness Enhancers, Sweetener Compositions, Methods of Making the Same and Consumables Containing the Same” (Nutrinova Nutrition Specialties & Food Ingredients GmbH, priority 2011, published 2014)

Test: Taste and spit assay phase II - assessment of fructose enhancing features
Type: in vivo
Conditions: 20 μM with fructose (4%) in 0.5% ethanol versus fructose (4%) only, 5 individuals, 10 ml
Description: The taste of a sample of compound of formula (Ia) with regard to sweetness and fructose enhancing features was assessed by using a panel of trained sensory evaluators experienced in the sweet taste estimation procedure. 5 individuals were asked to taste the quality of single samples of 10 ml volume. Panelists were asked to take a sample of the liquid to be assessed (20 μM test substance compound of formula (Ia) in 0.5% ethanol) into the mouth and after some time allowed for taste perception to spit the sample out completely. Subsequently, the panelists were asked to rinse their mouth well with water or black tea to reduce any potential carry over effects. The tasting of a sample could be repeated if required. In the next step the panelists were asked to answer questions in a pairwise comparison test to determine the enhancement of sweet taste of the test substance with fructose relative to fructose only. Again, 5 individuals were given samples of 10 ml volume. This time two samples were prepared for direct comparison regarding sweetness. One sample contained fructose (4%) in solvent (0.5% ethanol) and the other sample additionally contained 20 μM of the test substance compound of formula (Ia). Designation of the samples with A and B was randomized and decoded after the taste procedure. […]

With CC(=O)N(O)CCCCCNC(=O)C(O)(CC(=O)O)CC(=O)NCCCN(O)C(C)=O (stereo not shown) [compound of formula (Ia)] the “Sweetness in pairwise comparison with fructose only” value was “All 5 panelists identified the sample containing 4% fructose with the compound of formula (Ia) as sweeter than the sample containing 4% fructose only”.
